First: CN(C(=O)Cc1ccc(Cl)c(Oc2cc(Cl)cc(C#N)c2)c1F)c1ccccc1Cl [Compound I-111, 2-[4-Chloro-3-(3-chloro-5-cyano-phenoxy)-2-fluoro-phenyl]-N-(2-chloro-phenyl)-N-methyl-acetamide]
Second: CCCC(=O)N(C)S(=O)(=O)c1ccc(NC(=O)Cc2ccc(Cl)c(Oc3cc(Cl)cc(C#N)c3)c2F)c(Cl)c1 [Compound I-139, N-[4-(Butyryl-methyl-sulfamoyl)-2-chloro-phenyl]-2-[4-chloro-3-(3-chloro-5-cyano-phenoxy)-2-fluoro-phenyl]-acetamide]
The melting point of the first is lower: 134 to 137.1 °C for the first, 186.9 to 187.6 °C for the second.

First: Cc1ccc(CC(=O)Nc2ccc(S(C)(=O)=O)cc2Cl)c(F)c1Oc1cc(C#N)cc(C(F)F)c1 [Compound I-112, N-(2-Chloro-4-methanesulfonyl-phenyl)-2-[3-(3-cyano-5-difluoromethyl-phenoxy)-2-fluoro-4-methyl-phenyl]-acetamide]
Second: Cc1cc(S(N)(=O)=O)ccc1NC(=O)Cc1ccc(Cl)c(Oc2cc(C#N)cc(C(F)(F)F)c2)c1F [Compound I-120, 2-[4-Chloro-3-(3-cyano-5-trifluoromethyl-phenoxy)-2-fluoro-phenyl]-N-(2-methyl-4-sulfamoyl-phenyl)-acetamide]
The melting point of the first is lower: 179.9 to 182 °C for the first, 212 to 216.1 °C for the second.

Compared with N#Cc1cc(Oc2c(F)c(CC(=O)Nc3ccc(S(N)(=O)=O)cc3)cc(Br)c2Br)cc(C(F)F)c1 [Compound I-114, 2-[4,5-Dibromo-3-(3-cyano-5-difluoromethyl-phenoxy)-2-fluoro-phenyl]-N-(4-sulfamoyl-phenyl)-acetamide], Cc1cc(CC(=O)Nc2ccc(S(N)(=O)=O)cc2)cc(Oc2cc(Cl)cc(C#N)c2)c1 [Compound I-141, 2-[3-(3-Chloro-5-cyano-phenoxy)-5-methyl-phenyl]-N-(4-sulfamoyl-phenyl)-acetamide] is higher in melting point: 144 to 147 °C for the first, 183.9 to 185.2 °C for the second.

Compared with Cc1cc(S(=O)(=O)N2CCSCC2)ccc1NC(=O)Cc1ccc(C)c(Oc2cc(Cl)cc(C#N)c2)c1 [Compound I-117, 2-[3-(3-Chloro-5-cyano-phenoxy)-4-methyl-phenyl]-N-[2-methyl-4-(thiomorpholine-4-sulfonyl)-phenyl]-acetamide], Cc1cc(S(N)(=O)=O)ccc1NC(=O)Cc1ccc(C)c(Oc2cc(Cl)cc(C#N)c2)c1 [Compound I-122, 2-[3-(3-Chloro-5-cyano-phenoxy)-4-methyl-phenyl]-N-(2-methyl-4-sulfamoyl-phenyl)-acetamide] is higher in melting point: 151.9 to 155.3 °C for the first, 192.8 to 194.1 °C for the second.

First: Cc1cc(S(=O)(=O)NCCN2CCOCC2)ccc1NC(=O)Cc1ccc(C)c(Oc2cc(Cl)cc(C#N)c2)c1 [Compound I-118, 2-[3-(3-Chloro-5-cyano-phenoxy)-4-methyl-phenyl]-N-[2-methyl-4-(2-morpholin-4-yl-ethylsulfamoyl)-phenyl]-acetamide]
Second: CSCCNS(=O)(=O)c1ccc(NC(=O)Cc2ccc(C)c(Oc3cc(Cl)cc(C#N)c3)c2)c(C)c1 [Compound I-130, 2-[3-(3-Chloro-5-cyano-phenoxy)-4-methyl-phenyl]-N-[2-methyl-4-(2-methylsulfanyl-ethylsulfamoyl)-phenyl]-acetamide]
The melting point of the first is higher: 177 to 181 °C for the first, 155.6 to 156.6 °C for the second.

First: Cc1cc(S(=O)(=O)NC2CCC(O)CC2)ccc1NC(=O)Cc1ccc(C)c(Oc2cc(Cl)cc(C#N)c2)c1 (stereo not drawn) [Compound I-121, 2-[3-(3-Chloro-5-cyano-phenoxy)-4-methyl-phenyl]-N-[4-(4-hydroxy-cyclohexylsulfamoyl)-2-methyl-phenyl]-acetamide]
Second: Cc1cc(S(=O)(=O)NC2CCOCC2)ccc1NC(=O)Cc1ccc(C)c(Oc2cc(Cl)cc(C#N)c2)c1 [Compound I-128, 2-[3-(3-Chloro-5-cyano-phenoxy)-4-methyl-phenyl]-N-[2-methyl-4-(tetrahydro-pyran-4-ylsulfamoyl)-phenyl]-acetamide]
The melting point of the first is higher: 195.1 to 197.7 °C for the first, 171.7 to 172.6 °C for the second.

Cc1ccc(CC(=O)Nc2ccc(S(N)(=O)=O)cc2Cl)cc1Oc1cc(Cl)cc(C#N)c1 [Compound I-123, 2-[3-(3-Chloro-5-cyano-phenoxy)-4-methyl-phenyl]-N-(2-chloro-4-sulfamoyl-phenyl)-acetamide] and Cc1cc(CC(=O)Nc2ccc(S(N)(=O)=O)cc2Cl)cc(Oc2cc(Cl)cc(C#N)c2)c1 [Compound I-143, 2-[3-(3-Chloro-5-cyano-phenoxy)-5-methyl-phenyl]-N-(2-chloro-4-sulfamoyl-phenyl)-acetamide] cannot be ordered by melting point: 194 to 194.9 °C for the first, 194.1 to 195.9 °C for the second.

Compared with Cc1cc(C#N)cc(Oc2c(Cl)ccc(CC(=O)Nc3ccc(S(N)(=O)=O)cc3C)c2F)n1 [Compound I-124, 2-[4-Chloro-3-(4-cyano-6-methyl-pyridin-2-yloxy)-2-fluoro-phenyl]-N-(2-methyl-4-sulfamoyl-phenyl)-acetamide], Cc1cc(CC(=O)Nc2ccc(S(N)(=O)=O)cc2C)cc(Oc2cc(C#N)ccc2Cl)c1 [Compound I-147, 2-[3-(2-Chloro-5-cyano-phenoxy)-5-methyl-phenyl]-N-(2-methyl-4-sulfamoyl-phenyl)-acetamide] is lower in melting point: 230.1 to 230.7 °C for the first, 200.3 to 201.1 °C for the second.

Compared with Cc1cc(S(=O)(=O)CCC(=O)O)ccc1NC(=O)Cc1ccc(C)c(Oc2cc(Cl)cc(C#N)c2)c1 [Compound I-125, 3-(4-{2-[3-(3-Chloro-5-cyano-phenoxy)-4-methyl-phenyl]-acetylamino}-3-methyl-benzenesulfonyl)-propionic acid], Cc1cc(S(=O)(=O)CC(=O)O)ccc1NC(=O)Cc1ccc(C)c(Oc2cc(Cl)cc(C#N)c2)c1 [Compound I-152, (4-{2-[3-(3-Chloro-5-cyano-phenoxy)-4-methyl-phenyl]-acetylamino}-3-methyl-benzenesulfonyl)-acetic acid] is higher in melting point: 74.3 to 76.5 °C for the first, 180.5 to 181.4 °C for the second.

Compared with Cc1cc(S(=O)(=O)NCC(C)O)ccc1NC(=O)Cc1ccc(C)c(Oc2cc(Cl)cc(C#N)c2)c1 (stereo not drawn) [Compound I-129, 2-[3-(3-Chloro-5-cyano-phenoxy)-4-methyl-phenyl]-N-[4-(2-hydroxy-propylsulfamoyl)-2-methyl-phenyl]-acetamide], CSCCCNS(=O)(=O)c1ccc(NC(=O)Cc2ccc(C)c(Oc3cc(Cl)cc(C#N)c3)c2)c(C)c1 [Compound I-131, 2-[3-(3-Chloro-5-cyano-phenoxy)-4-methyl-phenyl]-N-[2-methyl-4-(3-methylsulfanyl-propylsulfamoyl)-phenyl]-acetamide] is lower in melting point: 172.2 to 173.4 °C for the first, 159.9 to 162.8 °C for the second.

First: COc1cc(CC(=O)Nc2ccc(S(N)(=O)=O)cc2)cc(Oc2cc(Cl)cc(C#N)c2)c1 [Compound I-132, 2-[3-(3-Chloro-5-cyano-phenoxy)-5-methoxy-phenyl]-N-(4-sulfamoyl-phenyl)-acetamide]
Second: COc1cc(CC(=O)Nc2ccc(S(N)(=O)=O)cc2C)cc(Oc2cc(Cl)cc(C#N)c2)c1 [Compound I-133, 2-[3-(3-Chloro-5-cyano-phenoxy)-5-methoxy-phenyl]-N-(2-methyl-4-sulfamoyl-phenyl)-acetamide]
The melting point of the first is higher: 184.1 to 185.5 °C for the first, 169.9 to 171.1 °C for the second.

First: COc1cc(CC(=O)Nc2ccc(S(N)(=O)=O)cc2Cl)cc(Oc2cc(Cl)cc(C#N)c2)c1 [Compound I-136, 2-[3-(3-Chloro-5-cyano-phenoxy)-5-methoxy-phenyl]-N-(2-chloro-4-sulfamoyl-phenyl)-acetamide]
Second: Cc1cc(CC(=O)Nc2ccc(S(N)(=O)=O)cc2C)cc(Oc2cc(Cl)cc(C#N)c2)c1 [Compound I-142, 2[3-(3-Chloro-5-cyano-phenoxy)-5-methyl-phenyl]-N-(2-methyl-4-sulfamoyl-phenyl)-acetamide]
The melting point of the first is lower: 159 to 161.1 °C for the first, 184.8 to 186 °C for the second.

Compared with Cc1cc(S(=O)(=O)CCC#N)ccc1NC(=O)Cc1ccc(C)c(Oc2cc(Cl)cc(C#N)c2)c1 [Compound I-137, 2-[3-(3-Chloro-5-cyano-phenoxy)-4-methyl-phenyl]-N-[4-(2-cyano-ethanesulfonyl)-2-methyl-phenyl]-acetamide], Cc1cc(S(=O)(=O)CCN)ccc1NC(=O)Cc1ccc(C)c(Oc2cc(Cl)cc(C#N)c2)c1 [Compound I-154, N-[4-(2-Amino-ethanesulfonyl)-2-methyl-phenyl]-2-[3-(3-chloro-5-cyano-phenoxy)-4-methyl-phenyl]-acetamide] is lower in melting point: 186.1 to 188 °C for the first, 92.4 to 95.5 °C for the second.

First: N#Cc1cccc(Oc2cc(CC(=O)Nc3ccc(S(N)(=O)=O)cc3)cc3ccoc23)c1 [Compound I-144, 2-[7-(3-Cyano-phenoxy)-benzofuran-5-yl]-N-(4-sulfamoyl-phenyl)-acetamide]
Second: Cc1cc(S(N)(=O)=O)ccc1NC(=O)Cc1cc(Oc2cccc(C#N)c2)c2occc2c1 [Compound I-145, 2-[7-(3-Cyano-phenoxy)-benzofuran-5-yl]-N-(2-methyl-4-sulfamoyl-phenyl)-acetamide]
The melting point of the first is lower: 196.4 to 198.7 °C for the first, 218.9 to 220 °C for the second.

Compared with Cc1cc(CC(=O)Nc2ccc(S(N)(=O)=O)cc2)cc(Oc2cc(C#N)ccc2Cl)c1 [Compound I-146, 2-[3-(2-Chloro-5-cyano-phenoxy)-5-methyl-phenyl]-N-(4-sulfamoyl-phenyl)-acetamide], Cc1cc(CC(=O)Nc2ccc(S(N)(=O)=O)cc2Cl)cc(Oc2cc(C#N)ccc2Cl)c1 [Compound I-148, 2-[3-(2-Chloro-5-cyano-phenoxy)-5-methyl-phenyl]-N-(2-chloro-4-sulfamoyl-phenyl)-acetamide] is lower in melting point: 235.9 to 236.7 °C for the first, 212.9 to 214.4 °C for the second.

First: NS(=O)(=O)c1ccc(NC(=O)Cc2cc(Oc3cc(Cl)cc(Cl)c3)c3occc3c2)c(Cl)c1 [Compound I-149, N-(2-Chloro-4-sulfamoyl-phenyl)-2-[7-(3,5-dichloro-phenoxy)-benzofuran-5-yl]-acetamide]
Second: Cc1cc(OC[C@@H](O)CO)ccc1NC(=O)Cc1ccc(C)c(Oc2cc(Cl)cc(C#N)c2)c1 [Compound I-150, 2-[3-(3-Chloro-5-cyano-phenoxy)-4-methyl-phenyl]-N-[4-((S)-2,3-dihydroxy-propoxy)-2-methyl-phenyl]-acetamide]
The melting point of the first is higher: 215.1 to 216.6 °C for the first, 137.5 to 138.4 °C for the second.

Cc1cc(OCC[C@@H](O)CO)ccc1NC(=O)Cc1ccc(C)c(Oc2cc(Cl)cc(C#N)c2)c1 [Compound I-151, 2-[3-(3-Chloro-5-cyano-phenoxy)-4-methyl-phenyl]-N-[4-((R)-3,4-dihydroxy-butoxy)-2-methyl-phenyl]-acetamide] showed a melting point of 104.9 to 106.4 °C.
